Holding throughout (test): inhibition of tumour cell growth, NCI panel, 48 h
Experiment [1] relates to 786-0 renal.
Experiment [2] deals with COLO 205 colon.
For experiment [3], the system named is DU-145 prostate.
Experiment [4] concerns HOP-62 NSCLC.
Experiment [5] deals with NCI-H226 lung.
Experiment [6] deals with NCI-H23 lung.
Experiment [7] relates to OVCAR-3 ovarian.
The subject of experiment [8] is SK-MEL-2 melanoma.
Experiment [9] deals with SNB-75 CNS.
Experiment [10] deals with SW-620 colon.

Our source for the GI50 and TGI values is PubChem BioAssay (NCI).

“And” between values parts separate entries of the source, which are not always exact repeats. Identical values can stand only once.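 Grown in 96-well plates, cells were treated for 48 hours with each compound at five concentrations. Insufficient inhibition: endpoint recorded as highest concentration tested. GI50: concentration for 50% inhibition of growth. TGI: total growth inhibition.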 Some results are limits rather than exact numbers.

For the molecule `O=C(Nc1cccc(-n2cc(-c3ccncc3)c(-c3ccc(Cl)c(O)c3)n2)c1)c1ccc(N2CCOCC2)c(C(F)(F)F)c1`, the GI50 is 2.83 µM in experiment [1]; over 50 µM in [2]; 4.2 µM in [3]; 9.38 µM in experiment [4]; over 50 µM in experiment [5]; 4.2 µM in experiment [6]. Moreover, the GI50 in experiment [7] was 4.81 µM; in [8], 2.89 µM; in experiment [9], 1.3 µM; in experiment [10], 1.72 µM. Further, the TGI in experiment [1] was 12.5 µM; in [2] it was over 50 µM; in experiment [3], over 50 µM; in experiment [4], over 50 µM; in experiment [5], over 50 µM; in experiment [6] it was 30.2 µM. Further, the TGI in experiment [7] was over 50 µM; in experiment [8], 15.3 µM; in experiment [9] it was over 50 µM; in experiment [10], 5.68 µM.

Regarding `CC1(N)CCN(c2cccnc2NC(=O)c2nc(-c3ncccc3C(F)(F)F)cnc2N)CC1`, the GI50 in [1] was 15.3 µM; in experiment [2] it was 5.48 µM; in [3], 35.3 µM; in experiment [4], 37.5 µM; in [5], 35.9 µM; in experiment [6], 49.5 µM. Besides, the GI50 in experiment [7] was 26.2 µM; in experiment [8], 50.9 µM; in experiment [9] it was 18.9 µM; in experiment [10], 28.4 µM. Moreover, the TGI is over 100 µM in experiment [1]; 36.6 µM in [2]; over 100 µM in experiment [3]; over 100 µM in experiment [4]; over 100 µM in experiment [5]; over 100 µM in experiment [6]. The TGI in experiment [7], in experiment [8], in [9] and in experiment [10] was over 100 µM in each case.

Consider `NC(=O)c1ccc(I)c(N=O)c1`, for which the GI50 is 61.8 µM in experiment [1]; 21.7 µM in [2]; 43.7 µM in experiment [3]; 57.6 µM in experiment [4]; 58.8 µM in experiment [5]; 51.7 µM in experiment [6]. For the same molecule, the GI50 in experiment [7] was 27.4 µM; in [8] it was 31.3 µM; in [9] it was 19.9 µM; in [10] it was 18.3 µM. The TGI was over 100 µM in experiment [1]; 44.3 µM in experiment [2]; over 100 µM in [3]; over 100 µM in [4]; over 100 µM in [5]; over 100 µM in experiment [6]. Also, the TGI in experiment [7] is 71.5 µM; in [8], 87.8 µM; in experiment [9], 69.4 µM; in [10], 33.3 µM.

As for `COc1cc2ccccc2oc1=O`, the TGI in [1], in experiment [2], in experiment [3], in experiment [4], in [5] and in experiment [6] was over 100 µM throughout. Also, the TGI in experiment [7], in experiment [8], in [9] and in experiment [10] was over 100 µM each time.

With `COc1c(O)cc2oc(-c3ccc(O)cc3)cc(=O)c2c1O`, the TGI in experiment [1], in experiment [2], in [3], in experiment [4], in experiment [5] and in [6] was over 100 µM throughout. The TGI in experiment [7] is over 100 µM; in [8] it was over 100 µM; in experiment [9], 58.2 µM; in experiment [10] it was over 100 µM.

Take `O=c1ccn(C2CC(O)C(CO)O2)c(=O)[nH]1` (stereo not drawn): the GI50 in experiment [1], in [2], in [3], in experiment [4], in [5] and in [6] was over 5000 µM in each case. In addition, the GI50 in [7], in experiment [8], in [9] and in experiment [10] was over 5000 µM in each case. Further, the TGI in [1], in experiment [2], in experiment [3], in [4], in [5] and in [6] was over 5000 µM throughout. The TGI in [7], in experiment [8], in experiment [9] and in experiment [10] was over 5000 µM throughout.

Regarding `CCCCC[C@H]1C/C=C2/C(=O)C=C[C@@H]2C/C=C\CCCC(=O)O[C@@H](CCCCC)C/C=C2/C(=O)C=C[C@@H]2C/C=C\CCCC(=O)O1`, the GI50 in experiment [1] was 0.41 µM; in experiment [2], 0.25 µM; in experiment [3], 0.355 µM; in [4], 0.536 µM; in experiment [5], 0.746 µM; in [6] it was 0.289 µM. Further, the GI50 in experiment [7] is 0.0955 µM; in [8], 0.385 µM; in experiment [9], 0.552 µM; in experiment [10], 0.135 µM. Further, the TGI came to 0.811 µM in experiment [1]; 0.671 µM in experiment [2]; 1.34 µM in experiment [3]; 1.29 µM in experiment [4]; 1.64 µM in [5]; 0.822 µM in experiment [6]. Besides, the TGI in experiment [7] turned out to be 0.353 µM; in [8], 1.22 µM; in [9], 2.4 µM; in [10] it was 0.734 µM.

Take `O=[N+]([O-])c1ccc2c(c1)Cc1cc(N=Cc3ccc4c(c3)OCO4)ccc1-2`: the TGI in experiment [1], in [2], in experiment [3], in experiment [4], in experiment [5] and in experiment [6] was over 100 µM throughout. Moreover, the TGI in experiment [7], in experiment [8], in experiment [9] and in [10] was over 100 µM each time.

Regarding `Cc1cc(Cl)ccc1Nc1nc(C(F)(F)F)ccc1C(=O)N/N=C/c1ccc(Cl)cc1`, the GI50 in experiment [1] is 2.04 µM; in experiment [2], 1.63 µM; in [3] it was 2.56 µM; in experiment [4] it was 2.33 µM; in experiment [5] it was 1.21 µM; in experiment [6], 1.85 µM. In addition, the GI50 in experiment [7] is 1.32 µM; in experiment [8], 2.18 µM; in experiment [9], 1.51 µM; in experiment [10], 2.15 µM. Moreover, the TGI in [1] worked out at 5.74 µM; in [2] it was 3.37 µM; in experiment [3], 13.1 µM; in [4] it was 9.22 µM; in experiment [5], 3.82 µM; in experiment [6], 6.48 µM. Further, the TGI turned out to be 5.28 µM in [7], 9.2 µM in experiment [8], 6.48 µM in [9] and 11 µM in [10].

In the case of `COc1cccc2c1C(=O)c1c(O)c3c(c(O)c1C2=O)CC(O)(C(O)CO)CC3OC1CC(N2CCOCC2)C(O)C(C)O1` (stereo not drawn), the GI50 in [1] is under 0.001 µM; in [2], 0.0278 µM; in experiment [4], 0.0262 µM; in [5], under 0.001 µM; in [6], 0.0174 µM; in [7] it was 0.0323 µM. Also, the GI50 in experiment [10] was 0.0138 µM. Besides, the TGI in [1] is 0.148 µM and 0.0989 µM; in [3] it was 3.31 µM; in [4], 0.0566 µM and 0.081 µM; in experiment [6], 0.0249 µM and 0.0419 µM; in experiment [8] it was 0.0117 µM; in experiment [9] it was 0.0131 µM and 0.0549 µM.

Turning to `C=C1/C(=C\C=C2/CCC[C@]3(C)[C@@H]([C@H](C)CCCC(C)(C)O)CC[C@@H]23)C[C@@H](OC(=O)CBr)C[C@@H]1O`, the GI50 was 0.642 µM in experiment [1]; 2.58 µM in [2]; 12.4 µM in [3]; 12.9 µM in experiment [4]; 3.74 µM in experiment [5]; 0.386 µM in experiment [6]. Also, the GI50 in experiment [7] was 0.395 µM; in experiment [8], 9.75 µM; in experiment [9], under 0.0116 µM; in [10], 1.78 µM. In addition, the TGI in experiment [1] turned out to be 1.89 µM; in [2], 19.6 µM; in [3], 26.6 µM; in experiment [4], 30.5 µM; in experiment [5], 22.1 µM; in experiment [6], 2.31 µM. The TGI amounted to 1.23 µM in [7], 28.6 µM in [8], 0.109 µM in experiment [9] and 3.96 µM in [10].

Consider `COc1ccc(C2CC(C)(O)Oc3cc4c(cc32)OCO4)cc1` (stereo not drawn), for which the TGI is over 100 µM in experiment [1]; 46 µM in experiment [2]; over 100 µM in experiment [3]; over 100 µM in [4]; over 100 µM in experiment [5]; over 100 µM in experiment [6]. For the same molecule, the TGI in [7] was over 100 µM; in experiment [8], 75.2 µM; in experiment [9], over 100 µM; in experiment [10], over 100 µM.

Turning to `COc1cccc(-n2nc(C)c3c(N/N=C(\C)c4ccncc4)ncnc32)c1`, the GI50 in experiment [1] was over 25 µM; in experiment [2], over 25 µM; in experiment [3], over 25 µM; in experiment [4], over 25 µM; in experiment [5], over 8.39 µM; in experiment [6] it was over 25 µM. For the same molecule, the GI50 is over 25 µM in [7], over 25 µM in [8], over 9.22 µM in experiment [9] and over 25 µM in [10]. Also, the TGI in [1], in [2], in experiment [3], in [4], in experiment [5] and in experiment [6] was over 25 µM throughout. In addition, the TGI in experiment [7], in experiment [8], in experiment [9] and in experiment [10] was over 25 µM in each case.
